Assay results: US6500222B2, “Diureides and their use” (priority 1999, dated 2002)

Columns and labels:
[1] = tested on: ryegrass; assay: Crop production experiment in Mitscherlich containers with ryegrass as test crop; details: 2.4 g of N per container
[2] = tested on: mustard seedlings (Sinapis alba, 'Maxi'); assay: Mustard seedling test on plant tolerance, growth and yield
[3] = N fertilization 100 mg/container, DAT 13
[4] = N fertilization 100 mg/container, DAT 23
[5] = N fertilization 200 mg/container, DAT 13
[6] = N fertilization 200 mg/container, DAT 23
[7] = N fertilization 400 mg/container, DAT 13
[8] = N fertilization 400 mg/container, DAT 23

Substance	Dry-matter production ([1]; day 16 post-fertilization) [g/container]	Nitrogen uptake ([1]; day 16 post-fertilization) [mg/container]	Dry-matter production ([1]; day 30 post-fertilization) [g/container]	Nitrogen uptake ([1]; day 30 post-fertilization) [mg/container]	Dry-matter production ([1]; day 45 post-fertilization) [g/container]	Nitrogen uptake ([1]; day 45 post-fertilization) [mg/container]	Dry-matter production ([1]; day 58 post-fertilization) [g/container]	Nitrogen uptake ([1]; day 58 post-fertilization) [mg/container]	Dry-matter production ([1]; day 78 post-fertilization) [g/container]	Nitrogen uptake ([1]; day 78 post-fertilization) [mg/container]	Dry-matter production ([1]; day 125 post-fertilization) [g/container]	Nitrogen uptake ([1]; day 125 post-fertilization) [mg/container]	"Greenness" (%) (N supply) 100% = dark green [2, 3]	"Greenness" (%) (N supply) 100% = dark green [2, 4]	FW yield [2, 4] [g/container]	N content in the DM (%) [2, 4] [%]	N uptake in the shoot [2, 4] [mg/container]	"Greenness" (%) (N supply) 100% = dark green [2, 5]	"Greenness" (%) (N supply) 100% = dark green [2, 6]	FW yield [2, 6] [g/container]	other results
Urea [reference compound]	7.7	480	5.6	311	8.6	404	8.6	410	5.9	127	1.4	33	100	100	19.6	4.3	84	100	100	1.6	Dry-matter production ([1]; day 100 post-fertilization): 2.3 g/container; Nitrogen uptake ([1]; day 100 post-fertilization): 50 mg/container; Dry-matter production ([1]; day 174 post-fertilization): 1.4 g/container; Nitrogen uptake ([1]; day 174 post-fertilization): 27 mg/container; N content in the DM (%) [2, 6]: 6.5%; N uptake in the shoot [2, 6]: 10 mg/container
bis(N′-potassium sulfamate)malonic acid diureide [IaB]													70	30	7.1	3.1	46	80	85	4.7	N content in the DM (%) [2, 6]: 5.3%; N uptake in the shoot [2, 6]: 80 mg/container; "Greenness" (%) (N supply) 100% = dark green [2, 7]: 85%; "Greenness" (%) (N supply) 100% = dark green [2, 8]: 85%; FW yield [2, 8]: 3.7 g/container; N content in the DM (%) [2, 8]: 6.6%; N uptake in the shoot [2, 8]: 90 mg/container
bis(N′-potassium sulfamate)succinic diureide [IaA]													30	30	10.4	1.5	27	30	30	10.4	N content in the DM (%) [2, 6]: 1.7%; N uptake in the shoot [2, 6]: 28 mg/container; "Greenness" (%) (N supply) 100% = dark green [2, 7]: 30%; "Greenness" (%) (N supply) 100% = dark green [2, 8]: 30%; FW yield [2, 8]: 10.6 g/container; N content in the DM (%) [2, 8]: 1.9%; N uptake in the shoot [2, 8]: 29 mg/container
fumaric acid diureide [Compound 1C]	4.2	112	1.9	60	2.1	69	3.4	108	3.3	104	5.1	138									
malonic acid diureide [Compound 1A]	5.7	185	2.5	97	3.8	130	3.1	119	5.4	180	9.3	283									Dry-matter production ([1]; day 100 post-fertilization): 6.3 g/container; Nitrogen uptake ([1]; day 100 post-fertilization): 204 mg/container; Dry-matter production ([1]; day 174 post-fertilization): 7.2 g/container; Nitrogen uptake ([1]; day 174 post-fertilization): 154 mg/container; Dry-matter production ([1]; day 252 post-fertilization): 4.5 g/container; Nitrogen uptake ([1]; day 252 post-fertilization): 145 mg/container
succinic acid diureide [Compound 1B]	4	114	1.7	50	1.3	36	2.2	69	4.6	161	9.6	281									
